# Patent US8598182B2, “Insecticidal pyrimidinyl aryl hyrdrazones” (Dow AgroSciences, LLC., priority 2007, dated 2013)
# Columns and labels:
# [1] = test system: Beet Armyworm (Spodoptera exigua); assay: Insecticidal diet-surface test for beet armyworm; type: in vivo; conditions: second-instar beet armyworm, 50 ug/cm2 on diet surface, 5 days after treatment, dead insects of 8
# Description: (§1) The compounds identified in Table 1 were prepared using the procedures illustrated in the foregoing examples, and the compounds were tested against beet armyworm and corn earworm as follows:
# (§2) Insecticidal Test for Corn Earworm (Helicoverpa zea) and Beet Armyworm (Spodoptera exigua).
# (§3) To prepare test solution, the test compound was formulated at 2000 ppm solution as 4 mg/2 mL of 9 acetone:1 tap water. 50 μL of the 2000 ppm (equivalent to 50 ug/cm^2 dose on diet surface area) test solution was pipetted upon the surface of 1 mL of lepidopteran diet (Southland Multi-Species Lepidopteran Diet) contained in each of eight wells per insect species (one well=1 replication). A second-instar corn earworm and beet armyworm was placed upon the treated diet in each well once the solvent had air-dried. Trays containing the treated diet and larvae were covered and then held in a growth chamber at 25° C., 50-55% RH, and 16 hr light:8 hr dark for 5 days. Observation were conducted 5 days after treatment and infestation. The number of dead insects of 8 per species per treatment was then determined and the results are given in Table 1 as percent control at a dose of […].
# (§4) Keys to the table: Mass spectral data were obtained using liquid chromatography mass spectroscopy (LC-MS). The masses are detected using electrospray ionization (ESI) and reported as Mol Ion (M+H, M−H); AVG LAPHEG 50 refers to activity against beet army worm (Spodoptera exigua) as defined above; AVG HELIZE 50 refers to activity against corn ear worm (Helicoverpa zea) as described above.
# [2] = test system: Corn Earworm (Helicoverpa zea); assay: Insecticidal diet-surface test for corn earworm; type: in vivo; conditions: second-instar corn earworm, 50 ug/cm2 on diet surface, 5 days after treatment, dead insects of 8
# Description: as §1, §2, §3, §4
Structure (SMILES),"LAPHEG 50 (ug/cm2), percent control [1] [%]","HELIZE 50 (ug/cm2), percent control [2] [%]"
Fc1ccc(Nc2nc(Cl)cc(N/N=C/c3ccc(OC(F)(F)F)cc3)n2)cc1C(F)(F)F [Compound 75],100,100
Fc1ccc(/C=N/Nc2nc(Cl)cc(Nc3ccc(OC(F)(F)C(F)F)cc3)n2)cc1C(F)(F)F [Compound 8],100,100
